According to PubChem BioAssay (NCI):
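Results reflect a 48-hour exposure of cells in 96-well plates to compound at five concentrations. TGI marks complete inhibition of growth.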

Key:
Assay in all cases: NCI tumour cell line growth inhibition, 48 h
SNB-75 CNS = test system: SNB-75 CNS
A549 NSCLC = test system: A549 NSCLC
SR leukemia = test system: SR leukemia
UO-31 renal = test system: UO-31 renal
IGROV1 ovarian = test system: IGROV1 ovarian
RPMI-8226 leukemia = test system: RPMI-8226 leukemia
NCI-H226 lung = test system: NCI-H226 lung
EKVX NSCLC = test system: EKVX NSCLC
MALME-3M melanoma = test system: MALME-3M melanoma
HS 578T breast = test system: HS 578T breast
OVCAR-4 ovarian = test system: OVCAR-4 ovarian
NCI-H23 lung = test system: NCI-H23 lung
K-562 leukemia = test system: K-562 leukemia
PC-3 prostate = test system: PC-3 prostate
UACC-257 melanoma = test system: UACC-257 melanoma
HT29 colon = test system: HT29 colon
HCC-2998 colon = test system: HCC-2998 colon
HOP-92 NSCLC = test system: HOP-92 NSCLC
HOP-62 NSCLC = test system: HOP-62 NSCLC
SK-MEL-2 melanoma = test system: SK-MEL-2 melanoma
U251 CNS = test system: U251 CNS
MCF7 breast = test system: MCF7 breast
SNB-19 CNS = test system: SNB-19 CNS
786-0 renal = test system: 786-0 renal
SK-OV-3 ovarian = test system: SK-OV-3 ovarian
MDA-N = test system: MDA-N
SF-539 CNS = test system: SF-539 CNS
MOLT-4 leukemia = test system: MOLT-4 leukemia
OVCAR-3 ovarian = test system: OVCAR-3 ovarian
RXF 393 renal = test system: RXF 393 renal
SW-620 colon = test system: SW-620 colon
OVCAR-5 ovarian = test system: OVCAR-5 ovarian
SF-268 CNS = test system: SF-268 CNS
UACC-62 melanoma = test system: UACC-62 melanoma
SK-MEL-28 melanoma = test system: SK-MEL-28 melanoma
T-47D breast = test system: T-47D breast
DU-145 prostate = test system: DU-145 prostate
NCI-H522 lung = test system: NCI-H522 lung
NCI/ADR-RES ovarian = test system: NCI/ADR-RES ovarian
HCT-15 colon = test system: HCT-15 colon
BT-549 breast = test system: BT-549 breast
M14 melanoma = test system: M14 melanoma
KM12 colon = test system: KM12 colon
LOX IMVI melanoma = test system: LOX IMVI melanoma
CCRF-CEM leukemia = test system: CCRF-CEM leukemia
HCT-116 colon = test system: HCT-116 colon
MDA-MB-231 breast = test system: MDA-MB-231 breast
HL-60(TB) leukemia = test system: HL-60(TB) leukemia
NCI-H460 lung = test system: NCI-H460 lung
A498 renal = test system: A498 renal
ACHN renal = test system: ACHN renal
SF-295 CNS = test system: SF-295 CNS
SK-MEL-5 melanoma = test system: SK-MEL-5 melanoma
COLO 205 colon = test system: COLO 205 colon
MDA-MB-435 = test system: MDA-MB-435
TK-10 renal = test system: TK-10 renal
OVCAR-8 ovarian = test system: OVCAR-8 ovarian
SN12C renal = test system: SN12C renal
CAKI-1 renal = test system: CAKI-1 renal

SMILES: COC(=O)C1C(O)C(C)C(O)C(C)(O)C=C(C)C2=C3C(=C(C)C(=O)c4c(O)c(c(C)c(OC(C)=O)c43)NC(=O)C(C)=C/C=C\C(C)(O)C(O)C(C)C1O)OCO2 (stereo not drawn)
- TGI (SNB-75 CNS): > 100 µM
- TGI (A549 NSCLC): > 100 µM
- TGI (SR leukemia): > 100 µM
- TGI (UO-31 renal): > 100 µM
- TGI (IGROV1 ovarian): > 100 µM
- TGI (RPMI-8226 leukemia): > 100 µM
- TGI (NCI-H226 lung): > 100 µM
- TGI (EKVX NSCLC): > 100 µM
- TGI (MALME-3M melanoma): 74.2 µM
- TGI (HS 578T breast): > 100 µM
- TGI (OVCAR-4 ovarian): > 100 µM
- TGI (NCI-H23 lung): > 100 µM
- TGI (K-562 leukemia): > 100 µM
- TGI (PC-3 prostate): > 100 µM
- TGI (UACC-257 melanoma): 78 µM
- TGI (HT29 colon): > 100 µM
- TGI (HCC-2998 colon): > 100 µM
- TGI (HOP-92 NSCLC): > 100 µM
- TGI (HOP-62 NSCLC): > 100 µM
- TGI (SK-MEL-2 melanoma): > 100 µM
- TGI (U251 CNS): > 100 µM
- TGI (MCF7 breast): > 100 µM
- TGI (SNB-19 CNS): > 100 µM
- TGI (786-0 renal): > 100 µM
- TGI (SK-OV-3 ovarian): > 100 µM
- TGI (MDA-N): > 100 µM
- TGI (SF-539 CNS): > 100 µM
- TGI (MOLT-4 leukemia): > 100 µM
- TGI (OVCAR-3 ovarian): 57 µM
- TGI (RXF 393 renal): > 100 µM
- TGI (SW-620 colon): > 100 µM
- TGI (OVCAR-5 ovarian): > 100 µM
- TGI (SF-268 CNS): > 100 µM
- TGI (UACC-62 melanoma): > 100 µM
- TGI (SK-MEL-28 melanoma): > 100 µM
- TGI (T-47D breast): > 100 µM
- TGI (DU-145 prostate): > 100 µM
- TGI (NCI-H522 lung): > 100 µM
- TGI (NCI/ADR-RES ovarian): > 100 µM
- TGI (HCT-15 colon): > 100 µM
- TGI (BT-549 breast): > 100 µM
- TGI (M14 melanoma): > 100 µM
- TGI (KM12 colon): > 100 µM
- TGI (LOX IMVI melanoma): > 100 µM
- TGI (CCRF-CEM leukemia): > 100 µM
- TGI (HCT-116 colon): > 100 µM
- TGI (MDA-MB-231 breast): > 100 µM
- TGI (HL-60(TB) leukemia): > 100 µM
- TGI (NCI-H460 lung): > 100 µM
- TGI (A498 renal): > 100 µM
- TGI (ACHN renal): > 100 µM
- TGI (SF-295 CNS): > 100 µM
- TGI (SK-MEL-5 melanoma): 47.7 µM
- TGI (COLO 205 colon): 69.7 µM
- TGI (MDA-MB-435): > 100 µM
- TGI (TK-10 renal): > 100 µM
- TGI (OVCAR-8 ovarian): > 100 µM
- TGI (SN12C renal): > 100 µM

SMILES: COC(=O)c1ccc2cc(O)c(O)cc2c1
- TGI (SNB-75 CNS): > 100 µM
- TGI (A549 NSCLC): > 100 µM
- TGI (SR leukemia): > 60 µM
- TGI (UO-31 renal): 55.3 µM
- TGI (IGROV1 ovarian): > 100 µM
- TGI (RPMI-8226 leukemia): > 100 µM
- TGI (NCI-H226 lung): > 100 µM
- TGI (EKVX NSCLC): > 100 µM
- TGI (MALME-3M melanoma): > 79 µM
- TGI (HS 578T breast): > 100 µM
- TGI (OVCAR-4 ovarian): > 100 µM
- TGI (NCI-H23 lung): > 82 µM
- TGI (K-562 leukemia): > 100 µM
- TGI (PC-3 prostate): > 100 µM
- TGI (UACC-257 melanoma): > 96.7 µM
- TGI (HT29 colon): > 100 µM
- TGI (HCC-2998 colon): > 100 µM
- TGI (HOP-92 NSCLC): > 100 µM
- TGI (HOP-62 NSCLC): > 100 µM
- TGI (SK-MEL-2 melanoma): > 100 µM
- TGI (U251 CNS): > 100 µM
- TGI (MCF7 breast): > 100 µM
- TGI (SNB-19 CNS): > 100 µM
- TGI (786-0 renal): > 100 µM
- TGI (SK-OV-3 ovarian): > 100 µM
- TGI (MDA-N): > 100 µM
- TGI (SF-539 CNS): > 100 µM
- TGI (MOLT-4 leukemia): > 68.8 µM
- TGI (OVCAR-3 ovarian): > 100 µM
- TGI (RXF 393 renal): > 100 µM
- TGI (SW-620 colon): > 100 µM
- TGI (OVCAR-5 ovarian): > 100 µM
- TGI (CAKI-1 renal): > 100 µM
- TGI (SF-268 CNS): > 81.1 µM
- TGI (UACC-62 melanoma): > 79.3 µM
- TGI (SK-MEL-28 melanoma): > 100 µM
- TGI (T-47D breast): > 100 µM
- TGI (DU-145 prostate): > 100 µM
- TGI (NCI-H522 lung): > 64.7 µM
- TGI (NCI/ADR-RES ovarian): > 78.2 µM
- TGI (HCT-15 colon): > 100 µM
- TGI (BT-549 breast): > 90.6 µM
- TGI (M14 melanoma): > 100 µM
- TGI (KM12 colon): > 100 µM
- TGI (LOX IMVI melanoma): > 100 µM
- TGI (CCRF-CEM leukemia): > 60.4 µM
- TGI (HCT-116 colon): > 100 µM
- TGI (MDA-MB-231 breast): > 100 µM
- TGI (HL-60(TB) leukemia): > 100 µM
- TGI (A498 renal): > 100 µM
- TGI (ACHN renal): > 100 µM
- TGI (SF-295 CNS): > 100 µM
- TGI (SK-MEL-5 melanoma): > 70.2 µM
- TGI (COLO 205 colon): > 100 µM
- TGI (MDA-MB-435): > 100 µM
- TGI (TK-10 renal): > 100 µM
- TGI (OVCAR-8 ovarian): > 91.3 µM
- TGI (SN12C renal): > 100 µM

SMILES: Cc1cc2nc3[nH]c4c(Cl)cc(Cl)cc4c3nc2cc1C
- TGI (SNB-75 CNS): 42 µM
- TGI (A549 NSCLC): > 100 µM
- TGI (SR leukemia): > 100 µM
- TGI (UO-31 renal): > 100 µM
- TGI (IGROV1 ovarian): > 100 µM
- TGI (RPMI-8226 leukemia): > 100 µM
- TGI (NCI-H226 lung): > 100 µM
- TGI (EKVX NSCLC): > 100 µM
- TGI (MALME-3M melanoma): > 100 µM
- TGI (HS 578T breast): > 100 µM
- TGI (OVCAR-4 ovarian): > 100 µM
- TGI (NCI-H23 lung): > 100 µM
- TGI (K-562 leukemia): > 100 µM
- TGI (PC-3 prostate): > 100 µM
- TGI (HT29 colon): > 100 µM
- TGI (HOP-92 NSCLC): > 100 µM
- TGI (HOP-62 NSCLC): > 100 µM
- TGI (SK-MEL-2 melanoma): > 100 µM
- TGI (U251 CNS): > 100 µM
- TGI (MCF7 breast): > 100 µM
- TGI (SNB-19 CNS): > 100 µM
- TGI (786-0 renal): > 100 µM
- TGI (SK-OV-3 ovarian): > 100 µM
- TGI (MDA-N): > 100 µM
- TGI (SF-539 CNS): > 100 µM
- TGI (MOLT-4 leukemia): > 100 µM
- TGI (OVCAR-3 ovarian): > 100 µM
- TGI (RXF 393 renal): > 100 µM
- TGI (SW-620 colon): > 100 µM
- TGI (OVCAR-5 ovarian): > 100 µM
- TGI (CAKI-1 renal): > 100 µM
- TGI (SF-268 CNS): > 100 µM
- TGI (UACC-62 melanoma): > 100 µM
- TGI (SK-MEL-28 melanoma): > 100 µM
- TGI (T-47D breast): > 100 µM
- TGI (DU-145 prostate): > 100 µM
- TGI (NCI-H522 lung): > 100 µM
- TGI (NCI/ADR-RES ovarian): > 100 µM
- TGI (HCT-15 colon): > 100 µM
- TGI (BT-549 breast): > 100 µM
- TGI (M14 melanoma): > 100 µM
- TGI (KM12 colon): > 100 µM
- TGI (LOX IMVI melanoma): > 100 µM
- TGI (CCRF-CEM leukemia): > 100 µM
- TGI (HCT-116 colon): > 100 µM
- TGI (MDA-MB-231 breast): > 100 µM
- TGI (HL-60(TB) leukemia): > 100 µM
- TGI (NCI-H460 lung): > 100 µM
- TGI (A498 renal): > 100 µM
- TGI (ACHN renal): > 100 µM
- TGI (SF-295 CNS): > 100 µM
- TGI (SK-MEL-5 melanoma): > 100 µM
- TGI (COLO 205 colon): > 100 µM
- TGI (MDA-MB-435): > 100 µM
- TGI (TK-10 renal): 56.4 µM
- TGI (OVCAR-8 ovarian): > 100 µM
- TGI (SN12C renal): > 100 µM
